The subject of experiment [1] is U87-MG human glioblastoma cell line. Put plainly: 3-Ntyr levels in U87-MG cells after treatment. Conditions: compared to the control, not significant (FIGS. 12C-12D). In kind it is cell-based.
The next experiment deals with nNOS. Put plainly: nNOS expression level in U87-MG cells. Particulars: both the lower dose and higher dose, compared to the control treatment; not statistically significant (FIG. 15). In kind it is cell-based, human.
The next experiment deals with U87-MG cells. Put plainly: Griess assay, nitrite and nitrate content. In kind it is cell-based, human. Conditions: L-NIL alone, compared to the control (summary statement). On the procedure: In a particular example, in vitro and in vivo experiments were performed using U87-MG cells and U87-MG-xenografted mice, respectively, as a glioblastoma model.
(Nitrite, measured by Griess reagent, commonly stands in for NO production.)

The test system of experiment [2] is SH-SY5Y cells. Put plainly: Western blots of 3-Ntyr, mTOR pathway components and Syp in SH-SY5Y cell lysate. In kind it is cell-based, human. Particulars: western blot normalized for β-actin, 100 μM 7-NI or 20 nM siRNA. The method, then: In FIGS. 4A-4D, for quantitative analysis data, all individual data series are presented as biological replicates (n=4) for all groups. Data were normalized for β-actin and are presented as mean±SEM. Statistical significance was determined using a One-way ANOVA followed by Fisher's LSD multiple comparison post hoc test. *P<0.05 and **P<0.01.
FIG. 4A: Representative western blots of 3-Ntyr prepared from cell lysate of SH-SY5Y cells following administration of the control (“SH-SY5Y”—Series 1), 100 μM 7-NI (“SH-SY5Y +7-NI”—Series 2), or 20 nM siRNA (SEQ ID NO: 4) (“SH-SY5Y+si-nNOS”—Series 3).
FIG. 4B: Quantitative analysis of 3-Ntyr levels for the experiments of FIG. 4A.
FIG. 4C: Representative western blots of mTOR, p-mTOR, TSC-2, AKT, pAKT, RPS6, pRPS6, and Syp prepared from the cell lysate of SH-SY5Y cells following administration of the control (“SH-SY5Y”—Series 1), 100 μM 7-NI (“SH-SY5Y+7-NI”—Series 2), or 20 nM siRNA (SEQ ID NO: 4) (“SH-SY5Y+si-nNOS”—Series 3).
FIG. 4D: Quantitative analysis of mTOR, p-mTOR, TSC-2, AKT, pAKT, RPS6, pRPS6, and Syp levels for the experiments of FIG. 4C.
In general terms: In western blotting, separated proteins are transferred to a membrane and probed.

For experiment [3], the system named is SH-SY5Y cells. Kind of experiment: Clonogenic survival assay in SH-SY5Y cells. It counts as cell-based, human. Conditions: 7-NI, 14 days. On the procedure:
Cells were seeded into 6-well plates at concentrations of 500/well or 1000/well in triplicates. After 24 hours, 7-NI was added, or cells were transiently transfected with siRNA-nNOS, as described above (SEQ ID NO: 4), before changing to serum-containing medium. Cells were incubated for 14 days to form visible colonies. Colonies were stained with crystal violet, washed with PBS, air-dried, and imaged. The colonies were visualized using ImageJ software. Cell colonies of greater than 50 cells were identified and counted.

Experiment [4] deals with SH-SY5Y cells. Kind of experiment: NADPH-diaphorase activity assay (NOS activity) in SH-SY5Y cell lysates. It counts as cell-based, human. Conditions: 100 μM 7-NI, 24 hr. The method, then: (§1) Human neuroblastoma (“NB”) SH-SY5Y cells were obtained from the American Type Culture Collection (ATCC) and maintained in Dulbecco's modified Eagle's medium (DMEM) and Ham's F-12 (1:1) supplemented with 10% fetal bovine serum, 2 mM L-glutamine, and 100 U/ml penicillin-G/[…] streptomycin in the humidified atmosphere (37° C., 5% CO2). Cells were plated onto 25 cm^2 and 75 cm^2 at a density of […] respectively for Western blotting (WB) and 1×10^5 for immunofluorescence. The SH-SY5Y cells were treated with 100 μM 7-nitroindazole (7-NI) for 24 hr. This concentration was confirmed in the dose-response experiment (FIG. 1) using an MTT viability assay.
The NADPH-diaphorase activity assay was used to determine the NOS activity based on the NADPH-dependent reduction of nitro-blue tetrazolium salt (NBT) to visible formazan. SH-SYSY cells grown in six-well culture plates were lysed in 50 mM Tris-HCl buffer (pH 7.4), containing 0.1% Triton X-100, 2 mM EDTA, and a protease inhibitor cocktail (Sigma, St. Louis, MO). […] After a 15 min incubation period at 37° C., the production of formazan was measured spectrophotometrically at 585 nm. The data were expressed as absorbance units and normalized for the protein content of each sample. Protein concentration was measured by the bicinchoninic acid (BCA) protein assay using BSA as a standard. […]

Experiment [5] relates to SH-SY5Y cells. Kind of experiment: Confocal immunofluorescence of SH-SY5Y cells (3-Ntyr, Syp). Conditions: 7-NI. In kind it is cell-based, human. On the procedure:
as §1
Cells cultured on coverslips coated with Poly-D-Lysine were washed three times with PBS and fixed in 4% paraformaldehyde for 15-20 min at room temperature. The fixed cells were washed three times with PBS and incubated in the presence of permeabilization buffer (PBS containing 0.1% Triton X-100) for 5 min at room temperature. […]

As for `CC(=N)NCCCC[C@H](N)C(=O)O` [L-NIL, N^6-(1-iminoethyl)-L-lysine], the 3-Ntyr levels entry in experiment [1] (higher dose) was “reduced”; in experiment [1] (lower dose), “slightly increased”. In addition, the “expression level of nNOS” value in the experiment on nNOS is “reduced”. Besides, the “total nitrate and nitrite content” value in the experiment with U87-MG cells was “significantly reduced”.

`O=[N+]([O-])c1cccc2cn[nH]c12` [7-NI, 7-nitroindazole]: in the experiment on SH-SY5Y cells [2], the “expression levels of 3-nitrotyrosine (3-Ntyr)” value is reported as “significant decrease”, the “expression levels of AKT” value is given as “significant decrease”, the “expression levels of RPS6” value was “significant decrease” and the “expression levels of TSC-2” value is listed as “significant decrease”. In the experiment with SH-SY5Y cells [2], the “expression levels of mTOR” value is on record as “significant decrease”, the “expression levels of p-mTOR” value is given as “significant decrease”, the “expression levels of pAKT” value is reported as “significant decrease” and the “expression levels of pRPS6” value is on record as “significant decrease”. The “expression levels of synaptophysin (Syp)” value in the experiment on SH-SY5Y cells [2] was “significant decrease”. In the experiment with SH-SY5Y cells [3], the number of colonies entry was “decrease”. Further, the “NADPH diaphorase activity (NOS activity)” value in the experiment with SH-SY5Y cells [4] is recorded as “significantly inhibited”. Also, in the experiment on SH-SY5Y cells [5], the “fluorescence intensity of 3-Ntyr” value is “significantly decreased” and the “fluorescence intensity of Syp” value is reported as “significantly decreased”.
